Measurements reported in publication PMC4006998 (Nature chemical biology, 2009).

Key:
[1] = molecular target: T1, AmpC β-lactamase (Escherichia coli, UniProt P00811); format: biochemical; details: read-out: Km of nitrocefin for AmpC; substrate; 100 mM Tris-HCl pH 7.0
[2] = molecular target: CTX-M β-lactamase (Escherichia coli, UniProt Q9L5C8); format: biochemical; details: Ki AmpC versus Ki CTX-M
[3] = test system: O=C(Cc1cccs1)N[C@@H]1C(=O)N2C(C(=O)O)=C(/C=C/c3ccc([N+](=O)[O-])cc3[N+](=O)[O-])CS[C@H]12; experiment: purified protein, by the assay type; details: other: substrate, 100 mM Tris-HCl pH 7.0, 19.0 °C
[4] = molecular target: T1, AmpC β-lactamase; details: at relevant concentrations; no reference given; cited from earlier work

T1 sequence (P00811 20-377): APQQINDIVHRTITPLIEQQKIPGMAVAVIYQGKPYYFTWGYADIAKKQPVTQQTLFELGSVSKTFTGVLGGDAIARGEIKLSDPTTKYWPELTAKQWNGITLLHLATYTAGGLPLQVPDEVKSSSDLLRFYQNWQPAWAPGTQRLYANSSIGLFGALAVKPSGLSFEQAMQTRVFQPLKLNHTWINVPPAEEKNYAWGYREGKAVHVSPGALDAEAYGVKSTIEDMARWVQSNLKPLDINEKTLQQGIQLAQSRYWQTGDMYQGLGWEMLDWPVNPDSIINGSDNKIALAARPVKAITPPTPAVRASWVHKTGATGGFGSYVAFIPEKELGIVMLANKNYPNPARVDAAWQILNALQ

Work on O=C(Cc1cccs1)N[C@@H]1C(=O)N2C(C(=O)O)=C(/C=C/c3ccc([N+](=O)[O-])cc3[N+](=O)[O-])CS[C@H]12 [nitrocefin] yielded a Km [1] of 400 µM.

For O=C(Nc1cccc(-c2nnn[nH]2)c1)c1cccc(F)c1 [Compound 12], the “specificity (CTX-M over AmpC)” value [2] was “over 100 fold”.

Work on CTX-M β-lactamase (Escherichia coli) yielded a Km [3] of 11.6 µM.

In the case of O=C(O)[C@H]1/C(=C/CO)O[C@@H]2CC(=O)N21 [clavulanate], the “inhibition of AmpC” value [4] is given as “does not inhibit AmpC at relevant concentrations”.
